From patent US8686150B2 (Sanofi, priority 2011, dated 2014)

What follows are compounds tested against T1, human full-length recombinant PKC βII (Homo sapiens, UniProt P05771) (assay: Determination of PKC βII inhibition (Caliper mobility-shift kinase assay, Fluorescein-RFARKGSLRQKNV peptide substrate)). Conditions: example compounds at a final concentration of 1.14 μM (±0.15 μM).
T1 construct: Active human full-length recombinant PKC βII; purchased Invitrogen GmbH, Darmstadt, Germany
T1 sequence (P05771 1-673 isoform P05771-2): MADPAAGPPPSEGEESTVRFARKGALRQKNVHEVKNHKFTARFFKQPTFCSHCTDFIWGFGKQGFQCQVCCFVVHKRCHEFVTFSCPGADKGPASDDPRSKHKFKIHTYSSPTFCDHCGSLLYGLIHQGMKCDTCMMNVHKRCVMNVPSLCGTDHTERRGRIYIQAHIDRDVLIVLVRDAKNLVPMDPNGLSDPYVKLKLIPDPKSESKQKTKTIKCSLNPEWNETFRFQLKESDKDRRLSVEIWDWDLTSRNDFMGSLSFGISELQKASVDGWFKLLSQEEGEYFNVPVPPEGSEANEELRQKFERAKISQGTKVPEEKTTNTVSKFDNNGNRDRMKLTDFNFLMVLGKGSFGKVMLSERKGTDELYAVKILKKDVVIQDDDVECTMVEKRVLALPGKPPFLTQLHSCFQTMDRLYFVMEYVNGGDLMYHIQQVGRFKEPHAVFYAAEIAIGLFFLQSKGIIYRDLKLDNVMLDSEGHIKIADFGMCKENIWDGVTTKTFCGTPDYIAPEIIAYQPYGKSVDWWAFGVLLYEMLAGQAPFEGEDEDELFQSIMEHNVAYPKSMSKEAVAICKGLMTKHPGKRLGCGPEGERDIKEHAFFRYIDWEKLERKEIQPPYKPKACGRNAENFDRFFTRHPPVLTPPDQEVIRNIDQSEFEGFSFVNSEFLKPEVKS
Format: biochemical
Method: Determination of PKC βII Inhibition
PKC βII Inhibition was Determined According to the Following Protocol:
Active human full-length recombinant PKC βII and the peptide substrate, Fluorescein-RFARKGSLRQKNV, were purchased from Invitrogen GmbH, Darmstadt, Germany. Adenosine-5′-triphosphate (ATP), bovine serum albumine (BSA), dimethylsulphoxide (DMSO), 4-(2-hydroxyethyl)piperazine-1-ethanesulfonic acid (Hepes), Triton X-100, 1,2-Dioleoyl-sn-glycerol (DAG), L-G-Phosphatidyl-L-serine (PS), calcium chloride (CaCl2), and Pluronic F-68 were purchased from Sigma-Aldrich, Munich, Germany. Magnesium chloride, 1 M sodium hydroxide solution, 1M hydrochloric acid solution and EDTA were obtained from Merck Biosciences, Darmstadt, Germany.
Test compounds were diluted to three times the test concentration in buffer 1 (30 mM Hepes-NaOH, pH 7.4, 0.01% Pluronic F-68 and 3% (v/v) DMSO). The PKC enzyme was diluted to a concentration of 30 ng/ml in buffer 2 (30 mM Hepes-NaOH, pH 7.4, 15 mM MgCl2, 150 μM CaCl2, 150 μg/ml PS, 60 μg/ml DAG, and 0.045% (w/v) Triton X-100). The peptide substrate and ATP were diluted to concentrations of 3 μM and 120 μM, respectively, in buffer 2. Two μl of the compound solution were mixed with 2 μl of the diluted enzyme in a 384-well small volume microtiter plate (Greiner, Bio-One, Frickenhausen, Germany), and the kinase reaction was initiated by addition of 2 μl of the solution containing peptide substrate and ATP. After 60 min incubation at 32° C., the reaction was stopped by addition of 20 μl of a solution containing 130 mM Hepes-NaOH, pH 7.4. 0.0195% (v/v) Brij-35, 6.5 mM EDTA. 0.13% chip coating reagent 3 (Caliper Lifescience Inc, Hopkinton, Mass.) and 6.5% (v/v) DMSO. Phosphorylation of the substrate peptide was then detected on a Caliper 3000 instrument essentially as described by Pommereau et al (J. Biomol. Screening 2004, 9(5), 409-416). Separation conditions were as follows: Pressure −0.8 psi, upstream voltage −3000 V, downstream voltage −800 V. Positive controls (buffer 1 instead of compound) and negative controls (buffer 1 instead of compound and buffer 2 instead of kinase solution) were run in parallel on each plate. Fractional turnover (R) was determined as the height of the peak of the phosphorylated peptide product divided by the sum of the unphosphorylated substrate and phosphorylated product peak heights. Percent-inhibition values for the test compounds were determined using the formula % Inhibition=100*(1−(Rcompound−Rnegative control)/(Rpositive control−Rnegative control).
In the following table % inhibition values observed with example compounds at a final concentration of 1.14 μM (±0.15 μM) are listed: […]
`CO[C@H]1CNC[C@@H]1NC(=O)c1cc(-c2ccc(O)cc2)nc2[nH]nc(C)c12` (racemic) [Example 78, 6-(4-Hydroxy-phenyl)-3-methyl-1H-pyrazolo[3,4-b]pyridine-4-carboxylic acid ((trans)-4-methoxy-pyrrolidin-3-yl)-amide] was tested, and the inhibition at 1.14 µM was 99%. `Cc1n[nH]c2nc(-c3ccc(O)cc3)cc(C(=O)NC3CCCC[C@@H]3N)c12` (mixture of isomers) [Example 123, 6-(4-Hydroxy-phenyl)-3-methyl-1H-pyrazolo[3,4-b]pyridine-4-carboxylic acid (trans-2-amino-cyclohexyl)-amide] was tested, and the inhibition at 1.14 µM was 75%. Compound `CN[C@H]1CN(C(=O)c2cc(-c3ccc(O)cc3)nc3[nH]nc(C)c23)CC[C@H]1C` (racemic) [Example 229, [6-(4-Hydroxy-phenyl)-3-methyl-1H-pyrazolo[3,4-b]pyridin-4-yl]-(cis-4-methyl-3-methylamino-piperidin-1-yl)-methanone] has an inhibition at 1.14 µM of 79%. `Cc1n[nH]c2nc(-c3ccc(O)cc3)cc(C(=O)N[C@H]3C[C@@H]3N)c12` (racemic) [Example 251, 6-(4-Hydroxy-phenyl)-3-methyl-1H-pyrazolo[3,4-b]pyridine-4-carboxylic acid (trans-2-amino-cyclopropyl)-amide] showed an inhibition at 1.14 µM of 53%. `Cc1n[nH]c2nc(-c3ccc(O)c(F)c3)cc(C(=O)N[C@H]3C[C@@H]3N)c12` (racemic) [Example 307, 6-(3-Fluoro-4-hydroxy-phenyl)-3-methyl-1H-pyrazolo[3,4-b]pyridine-4-carboxylic acid (trans-2-amino-cyclopropyl)-amide] was tested, and the inhibition at 1.14 µM was 59%. `CN[C@H]1CN(C(=O)c2cc(-c3ccc(O)c(F)c3)nc3[nH]nc(C)c23)CC[C@H]1C` (racemic) [Example 312, [6-(3-Fluoro-4-hydroxy-phenyl)-3-methyl-1H-pyrazolo[3,4-b]pyridin-4-yl]-(cis-4-methyl-3-methylamino-piperidin-1-yl)-methanone] gave an inhibition at 1.14 µM of 54%. Compound `Cc1n[nH]c2nc(-c3ccc(O)cc3F)cc(C(=O)N3CCN[C@@H](C)[C@H]3C)c12` (racemic) [Example 442, ((cis)-2,3-Dimethyl-piperazin-1-yl)-[6-(2-fluoro-4-hydroxy-phenyl)-3-methyl-1H-pyrazolo[3,4-b]pyridin-4-yl]-methanone] has an inhibition at 1.14 µM of 97%. For `Cc1n[nH]c2nc(-c3ccc(O)cc3)cc(C(=O)N3C[C@H](C)NC[C@H]3C)c12` (relative stereo) [Example 73, (trans-2,5-Dimethyl-piperazin-1-yl)-[6-(4-hydroxy-phenyl)-3-methyl-1H-pyrazolo[3,4-b]pyridin-4-yl]-methanone], the inhibition at 1.14 µM was 95%. `Cc1ccc([C@@H]2CNC[C@H]2NC(=O)c2cc(-c3ccc(O)cc3)nc3[nH]nc(C)c23)cc1` (relative stereo) [Example 119, 6-(4-Hydroxy-phenyl)-3-methyl-1H-pyrazolo[3,4-b]pyridine-4-carboxylic acid (trans-4-p-tolyl-pyrrolidin-3-yl)-amide] showed an inhibition at 1.14 µM of 91%. Work on `Cc1n[nH]c2nc(-c3ccc(O)cc3)cc(C(=O)N[C@@H]3CCCC[C@@H]3N)c12` (relative stereo) [Example 126, 6-(4-Hydroxy-phenyl)-3-methyl-1H-pyrazolo[3,4-b]pyridine-4-carboxylic acid (cis-2-amino-cyclohexyl)-amide] yielded an inhibition at 1.14 µM of 48%. `Cc1n[nH]c2nc(-c3ccc(O)cc3F)cc(C(=O)N3C[C@@H](c4ccccc4)NC[C@@H]3C)c12` (relative stereo) [Example 447, [6-(2-Fluoro-4-hydroxy-phenyl)-3-methyl-1H-pyrazolo[3,4-b]pyridin-4-yl]-(trans-2-methyl-5-phenyl-piperazin-1-yl)-methanone] was tested, and the inhibition at 1.14 µM was 83%. In the case of `Cc1n[nH]c2nc(-c3ccc(O)cc3)cc(C(=O)N3CCNC(c4ccccc4)C3)c12` (single isomer, unassigned) [Example 456, [6-(4-Hydroxy-phenyl)-3-methyl-1H-pyrazolo[3,4-b]pyridin-4-yl]-(3-phenyl-piperazin-1-yl)-methanone], the “% Inhibition” value is reported as 88%. In the case of `Cc1n[nH]c2nc(-c3ccc(O)cc3)cc(C(=O)N3CCNC(c4ccccc4)C3)c12` (single isomer, unassigned) [Example 457, [6-(4-Hydroxy-phenyl)-3-methyl-1H-pyrazolo[3,4-b]pyridin-4-yl]-(3-phenyl-piperazin-1-yl)-methanone], the “% Inhibition” value is reported as 63%. In the case of `Cc1n[nH]c2nc(-c3ccc(O)cc3F)cc(C(=O)N3C[C@@H](c4ccccc4)NC[C@@H]3C)c12` (single isomer, unassigned) [Example 460, [6-(2-Fluoro-4-hydroxy-phenyl)-3-methyl-1H-pyrazolo[3,4-b]pyridin-4-yl]-(trans-2-methyl-5-phenyl-piperazin-1-yl)-methanone], the “% Inhibition” value is reported as 61%. For `Cc1n[nH]c2nc(-c3ccc(O)cc3F)cc(C(=O)N3C[C@@H](c4ccccc4)NC[C@@H]3C)c12` (single isomer, unassigned) [Example 461, [6-(2-Fluoro-4-hydroxy-phenyl)-3-methyl-1H-pyrazolo[3,4-b]pyridin-4-yl]-(trans-2-methyl-5-phenyl-piperazin-1-yl)-methanone], the “% Inhibition” value was 99%. In the case of `Cc1n[nH]c2nc(-c3ccc(O)cc3)cc(C(=O)NC34CNCC3C4)c12` (stereo in doubt) [Example 205, 6-(4-Hydroxy-phenyl)-3-methyl-1H-pyrazolo[3,4-b]pyridine-4-carboxylic acid [(R)-3-azabicyclo[3.1.0]hexan-1-yl]-amide], the inhibition at 1.14 µM is reported as 92%. Compound `Cc1n[nH]c2nc(-c3ccc(O)c(F)c3)cc(C(=O)N[C@@H]3[C@H]4CC[C@H](C4)[C@H]3CN)c12` (stereo in doubt) [Example 311, 6-(3-Fluoro-4-hydroxy-phenyl)-3-methyl-1H-pyrazolo[3,4-b]pyridine-4-carboxylic acid (3-aminomethyl-bicyclo[2.2.1]hept-2-yl)-amide] has an inhibition at 1.14 µM of 74%. For `Cc1n[nH]c2nc(-c3ccc(O)c(F)c3)cc(C(=O)NC3CN4CCC3CC4)c12` (stereo in doubt) [Example 317, (S)-6-(3-Fluoro-4-hydroxy-phenyl)-3-methyl-1H-pyrazolo[3,4-b]pyridine-4-carboxylic acid (1-aza-bicyclo[2.2.2]oct-3-yl)-amide], the inhibition at 1.14 µM was 68%. With `Cc1n[nH]c2nc(-c3ccc(O)c(F)c3)cc(C(=O)NC3CN4CCC3CC4)c12` (stereo in doubt) [Example 361, (R)-6-(3-Fluoro-4-hydroxy-phenyl)-3-methyl-1H-pyrazolo[3,4-b]pyridine-4-carboxylic acid (1-aza-bicyclo[2.2.2]oct-3-yl)-amide] the inhibition at 1.14 µM was 50%. `Cc1n[nH]c2nc(-c3ccc(O)cc3)cc(C(=O)N3CCNCC3(C)c3ccccc3)c12` (stereo not shown) [Example 1, [6-(4-Hydroxy-phenyl)-3-methyl-1H-pyrazolo[3,4-b]pyridin-4-yl]-(2-methyl-2-phenyl-piperazin-1-yl)-methanone] showed an inhibition at 1.14 µM of 98%. Work on `CCc1n[nH]c2nc(-c3ccc(O)c(F)c3)cc(C(=O)N3CCNCC3)c12` [Example 2, [3-Ethyl-6-(3-fluoro-4-hydroxy-phenyl)-1H-pyrazolo[3,4-b]pyridin-4-yl]-piperazin-1-yl-methanone] yielded an inhibition at 1.14 µM of 69%. `CCc1n[nH]c2nc(-c3ccc(O)cc3)cc(C(=O)N3CCNCC3)c12` [Example 3, [3-Ethyl-6-(4-hydroxy-phenyl)-1H-pyrazolo[3,4-b]pyridin-4-yl]-piperazin-1-yl-methanone] showed an inhibition at 1.14 µM of 82%.
